# From ChEMBL document CHEMBL3751730, “Synthesis and in vitro antitumor evaluation of dihydroartemisinin-cinnamic acid ester derivatives” (Eur J Med Chem, 2016)
# Active and inactive are the calls of the source. The calls are words filed in the database; no cut-off is given here.
# Key:
# A549 [1] = assay: Antiproliferative activity against human A549 cells at 0.20 uM after 72 hrs by MTT assay; format: functional, cell-based
# [2] = Cytotoxicity against human L02 cells after 72 hrs by MTT assay; format: cell-based; conditions: L02, 72 h
# A549 [3] = assay: Induction of apoptosis in human A549 cells assessed as early apoptotic cells at 30 uM after 48 hrs by Annexin V-FITC/propidium iodide staining based flow cytrometric analysis (reference value: 0.63%); format: functional
# A549 [4] = assay: Induction of apoptosis in human A549 cells after 48 hrs by Annexin V-FITC/propidium iodide staining based flow cytometric analysis; format: functional, cell-based
# A549 [5] = assay: Induction of apoptosis in human A549 cells assessed as nuclei blebbing at 30 uM after 48 hrs by Hoechst 33258 staining based fluorescence microscopic analysis; format: functional, cell-based
# A549 [6] = assay: Induction of apoptosis in human A549 cells assessed as early apoptotic cells at 30 uM after 48 hrs by Annexin V/propidium iodide staining based flow cytometric analysis in the absence of 3 uM DFO (reference value: 0.63%); format: functional
# A549 [7] = assay: Induction of apoptosis in human A549 cells assessed as cell shrinkage at 10 uM after 48 hrs by Hoechst 33258 staining based fluorescence microscopic analysis; format: functional
# A549 [8] = assay: Induction of apoptosis in human A549 cells assessed as reactive oxygen species formation at 30 uM by DCFH-DA staining based FLIPR assay; format: functional, cell-based; conditions: TDE = time-dependent effect
# A549 [9] = assay: Induction of apoptosis in human A549 cells assessed as reactive oxygen species formation after 48 hrs by DCFH-DA staining based fluorescence microscopic analysis; format: functional, cell-based
# A549 [10] = assay: Induction of apoptosis in human A549 cells assessed as nuclear rounding at 30 uM after 48 hrs by Hoechst 33258 staining based fluorescence microscopic analysis; format: functional, cell-based
# A549 [11] = assay: Induction of apoptosis in human A549 cells assessed as nuclear rounding at 10 uM after 48 hrs by Hoechst 33258 staining based fluorescence microscopic analysis; format: functional, cell-based
# A549 [12] = assay: Induction of apoptosis in human A549 cells assessed as nuclei blebbing at 10 uM after 48 hrs by Hoechst 33258 staining based fluorescence microscopic analysis; format: functional, cell-based
# [13] = Induction of apoptosis in human L02 cells assessed as reactive oxygen species formation at 10 uM after 48 hrs by DCFH-DA staining based fluorescence microscopic analysis; format: cell-based; conditions: l02, 48 h
# A549 [14] = assay: Cytotoxicity against human A549 cells assessed as cell viability at 3 to 30 uM after 48 hrs by MTT assay in presence of 3 uM DFO; format: functional, cell-based
# [15] = Antiproliferative activity against human SGC7901 cells after 72 hrs by MTT assay; format: functional, cell-based; conditions: SGC-7901, 72 h
# A549 [16] = assay: Induction of apoptosis in human A549 cells assessed as cell shrinkage at 30 uM after 48 hrs by Hoechst 33258 staining based fluorescence microscopic analysis; format: functional
# [17] = Induction of apoptosis in human L02 cells assessed as reactive oxygen species formation at 30 uM after 48 hrs by DCFH-DA staining based fluorescence microscopic analysis; format: cell-based; conditions: l02, 48 h
# [18] = Induction of apoptosis in human L02 cells assessed as reactive oxygen species formation at 30 uM measured for 20 hrs by DCFH-DA staining based FLIPR assay; format: cell-based; conditions: l02, 20 h
# A549 [19] = assay: Induction of apoptosis in human A549 cells assessed as early apoptotic cells at 30 uM after 48 hrs by Annexin V/propidium iodide staining based flow cytrometric analysis in presence of 5 mM NAC (reference value: 0.63%); format: functional
# A549 [20] = assay: Induction of apoptosis in human A549 cells assessed as nuclear rounding at 3 uM after 48 hrs by Hoechst 33258 staining based fluorescence microscopic analysis; format: functional, cell-based
# [21] = Selectivity index, ratio of IC50 for human L02 cells to IC50 for human A549 cells; format: functional
# A549 [22] = assay: Induction of apoptosis in human A549 cells assessed as cell viability at 3 to 30 uM after 48 hrs by MTT assay in presence of 5 mM NAC; format: functional, cell-based
# A549 [23] = assay: Induction of apoptosis in human A549 cells assessed as early apoptotic cells at 10 uM after 48 hrs by Annexin V-FITC/propidium iodide staining based flow cytrometric analysis (reference value: 0.63%); format: functional
# A549 [24] = assay: Induction of apoptosis in human A549 cells assessed as early apoptotic cells at 30 uM after 48 hrs by Annexin V/propidium iodide staining based flow cytrometric analysis in absence of 5 mM NAC (reference value: 0.63%); format: functional
# A549 [25] = assay: Induction of reactive oxygen species generation in human A549 cells at 30 uM measured for 20 hrs by DCFH-DA staining based fluorescence assay in presence of 3 uM DFO; format: functional, cell-based
# [26] = Antiproliferative activity against human MDA-MB-435S cells after 72 hrs by MTT assay; format: functional, cell-based
# A549 [27] = assay: Antiproliferative activity against human A549 cells after 72 hrs by MTT assay; format: functional, cell-based; conditions: A549, 72 h
# A549 [28] = assay: Induction of apoptosis in human A549 cells assessed as cell shrinkage at 3 uM after 48 hrs by Hoechst 33258 staining based fluorescence microscopic analysis; format: functional
# A549 [29] = assay: Induction of apoptosis in human A549 cells assessed as early apoptotic cells at 30 uM after 48 hrs by Annexin V/propidium iodide staining based flow cytometric analysis in presence of 3 uM DFO (reference value: 0.63%); format: functional
# [30] = Antiproliferative activity against human PC3 cells after 72 hrs by MTT assay; format: functional, cell-based; conditions: PC-3, 72 h
# A549 [31] = assay: Induction of apoptosis in human A549 cells assessed as nuclei blebbing at 3 uM after 48 hrs by Hoechst 33258 staining based fluorescence microscopic analysis; format: functional, cell-based
# A549 [32] = assay: Induction of apoptosis in human A549 cells assessed as early apoptotic cells at 3 uM after 48 hrs by Annexin V-FITC/propidium iodide staining based flow cytrometric analysis (reference value: 0.63%); format: functional
structure (smiles),measurement,setting,value
COc1ccc(/C=C/C(=O)O[C@@H]2O[C@@H]3O[C@@]4(C)CC[C@H]5[C@H](C)[C@H](OC(=O)/C=C/c6ccc(OC)c(OC)c6)C[C@@H]([C@H]2C)[C@@]35OO4)cc1OC,Activity,A549 [1],Active
same,IC50,[2],80.2 µM
same,Activity,A549 [3],16.88%
same,Activity,A549 [4],Dose-dependent effect
same,Activity,A549 [5],Active
same,Activity,A549 [6],16.88%
same,Activity,A549 [7],Active
same,Activity,A549 [8],tde
same,Activity,A549 [9],Dose-dependent effect
same,Activity,A549 [10],Active
same,Activity,A549 [11],Active
same,Activity,A549 [12],Active
same,Activity,[13],Non-toxic
same,Activity,A549 [14],inactive
same,IC50,[15],4.94 µM
same,Activity,A549 [16],Active
same,Activity,[17],Non-toxic
same,Activity,[18],Non-toxic
same,Activity,A549 [19],4.71%
same,Activity,A549 [20],Active
same,Ratio IC50,[21],401.25
same,Activity,A549 [22],inactive
same,Activity,A549 [23],14.01%
same,Activity,A549 [24],16.88%
same,Activity,A549 [25],inactive
same,IC50,[26],6.23 µM
same,IC50,A549 [27],0.2 µM
same,Activity,A549 [28],Active
same,Activity,A549 [29],2.17%
same,IC50,[30],22.7 µM
same,Activity,A549 [31],Active
same,Activity,A549 [32],4.33%
